Data: patent US11814367B2, “Inhibitors of glycogen synthase 1 (GYS1) and methods of use thereof” (Maze Therapeutics, Inc., priority 2021, dated 2023)

Molecular target: hGYS1 enzyme (recombinant hGYS1/GN1 protein) (Homo sapiens (Human), UniProt P13807)
Assay: GYS1 coupled enzyme assay (PK/LDH)
Type: biochemical
Conditions: hGYS1/GN1 50 nM, UDP-Glucose 0.8 mM, G6P 1 mM; geometric mean of at least 2 runs

hGYS1 enzyme (recombinant hGYS1/GN1 protein), sequence (P13807 whole entry): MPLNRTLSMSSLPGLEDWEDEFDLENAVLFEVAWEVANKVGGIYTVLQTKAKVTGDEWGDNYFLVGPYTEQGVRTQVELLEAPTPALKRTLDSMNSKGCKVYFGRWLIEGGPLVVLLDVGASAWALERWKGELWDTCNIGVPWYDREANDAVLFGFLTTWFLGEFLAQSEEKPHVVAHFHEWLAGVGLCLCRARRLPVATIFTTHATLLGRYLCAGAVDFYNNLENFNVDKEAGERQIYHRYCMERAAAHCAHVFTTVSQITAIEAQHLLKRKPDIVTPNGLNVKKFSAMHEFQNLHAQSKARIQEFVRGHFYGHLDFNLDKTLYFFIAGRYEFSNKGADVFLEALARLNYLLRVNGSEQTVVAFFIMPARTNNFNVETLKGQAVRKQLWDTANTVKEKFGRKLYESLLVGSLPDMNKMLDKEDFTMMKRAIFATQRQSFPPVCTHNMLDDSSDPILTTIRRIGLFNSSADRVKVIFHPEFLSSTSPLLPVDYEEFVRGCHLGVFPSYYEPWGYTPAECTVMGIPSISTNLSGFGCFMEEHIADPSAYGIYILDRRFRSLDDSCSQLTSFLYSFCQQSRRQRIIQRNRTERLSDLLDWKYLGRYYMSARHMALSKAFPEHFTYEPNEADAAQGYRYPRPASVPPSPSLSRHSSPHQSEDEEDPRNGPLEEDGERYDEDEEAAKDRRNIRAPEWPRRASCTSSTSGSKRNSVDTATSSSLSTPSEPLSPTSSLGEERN
hGYS1 enzyme (recombinant hGYS1/GN1 protein), sequence (P46976 whole entry partner): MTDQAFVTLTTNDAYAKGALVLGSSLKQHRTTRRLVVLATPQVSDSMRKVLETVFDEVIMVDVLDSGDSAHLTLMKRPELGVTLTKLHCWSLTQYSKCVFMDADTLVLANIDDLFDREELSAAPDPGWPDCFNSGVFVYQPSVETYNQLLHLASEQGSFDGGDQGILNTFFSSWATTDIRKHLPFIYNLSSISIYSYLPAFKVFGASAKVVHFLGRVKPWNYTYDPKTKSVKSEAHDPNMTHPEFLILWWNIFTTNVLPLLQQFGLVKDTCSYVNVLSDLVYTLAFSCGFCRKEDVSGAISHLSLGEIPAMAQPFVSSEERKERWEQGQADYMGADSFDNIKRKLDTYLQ

| SMILES | IC50 |
| --- | --- |
| CC(=O)N1[C@@H]2C[C@@H]2C[C@H]1C(=O)N[C@@H](c1ccccc1)c1ccc(C(C)C)cc1 [Compound 200, (1R,3S,5R)-2-acetyl-N-[(S)-phenyl[4-(propan-2-yl)phenyl]methyl]-2-azabicyclo[3.1.0]hexane-3-carboxamide] | 4420 nM |
| CC(Cn1ccnc1)C(=O)N1C[C@H](F)C[C@H]1C(=O)N[C@@H](c1ccccc1)c1ccc(C(C)C)cc1 (stereo partly drawn) [Compound 79, (2S,4R)-4-fluoro-1-[3-(1H-imidazol-1-yl)-2-methylpropanoyl]-N-[(S)-phenyl[4-(propan-2-yl)phenyl]methyl]pyrrolidine-2-carboxamide] | 313 nM |
| CC(C)c1ccc([C@@H](NC(=O)[C@@H]2C[C@@H](F)CN2C(=O)Cc2[nH]nnc2N2CCN(C(=O)OC(C)(C)C)CC2)c2ccccc2)cc1F [Compound 370, tert-butyl 4-(5-{2-[(2S,4R)-4-fluoro-2-{[(S)-[3-fluoro-4-(propan-2-yl)phenyl](phenyl)methyl]carbamoyl}pyrrolidin-1-yl]-2-oxoethyl}-1H-1,2,3-triazol-4-yl)piperazine-1-carboxylate] | 569 nM |
| CC(Cc1ccccn1)C(=O)N1C[C@H](F)C[C@H]1C(=O)N[C@@H](c1ccccc1)c1ccc(C(C)C)cc1 (stereo partly drawn) [Compound 132, (2S,4R)-4-fluoro-1-[2-methyl-3-(pyridin-2-yl)propanoyl]-N-[(S)-phenyl[4-(propan-2-yl)phenyl]methyl]pyrrolidine-2-carboxamide] | 99 nM |
| Cc1cnn(C(C)C(=O)N2C[C@H](F)C[C@H]2C(=O)N[C@@H](c2ccccc2)c2ccc(C(C)C)cc2)c1 (stereo partly drawn) [Compound 127, (2S,4R)-4-fluoro-1-[2-(4-methyl-1H-pyrazol-1-yl)propanoyl]-N-[(S)-phenyl[4-(propan-2-yl)phenyl]methyl]pyrrolidine-2-carboxamide] | 318 nM |
| CC(C)c1ccc([C@@H](NC(=O)[C@@H]2C[C@@H](F)CN2C(=O)c2cc(-c3ccncc3)[nH]n2)c2ccccc2)cc1 [Compound 78, (2S,4R)-4-fluoro-N-[(S)-phenyl[4-(propan-2-yl)phenyl]methyl]-1-[5-(pyridin-4-yl)-1H-pyrazole-3-carbonyl]pyrrolidine-2-carboxamide] | 953 nM |
| CC(C)c1ccc([C@@H](NC(=O)[C@@H]2C[C@@H](F)CN2C(=O)Cc2ccncc2)c2ccccc2)cc1 [Compound 39, (2S,4R)-4-fluoro-N-[(S)-phenyl[4-(propan-2-yl)phenyl]methyl]-1-[2-(pyridin-4-yl)acetyl]pyrrolidine-2-carboxamide] | 50 nM |
| CC(C)c1ccc([C@@H](NC(=O)[C@@H]2C[C@@H](F)CN2C(=O)Cc2cnoc2)c2ccccc2)cc1 [Compound 230, (2S,4R)-4-fluoro-1-[2-(1,2-oxazol-4-yl)acetyl]-N-[(S)-phenyl[4-(propan-2-yl)phenyl]methyl]pyrrolidine-2-carboxamide] | 117 nM |
| CC(C)c1ccc([C@@H](NC(=O)[C@@H]2C[C@@H](F)CN2C(=O)c2cnco2)c2ccccc2)cc1 [Compound 12, (2S,4R)-4-fluoro-1-(1,3-oxazole-5-carbonyl)-N-[(S)-phenyl[4-(propan-2-yl)phenyl]methyl]pyrrolidine-2-carboxamide] | 415 nM |
| CC(=O)N1[C@H](C(=O)N[C@@H](c2ccccc2)c2ccc(C(C)C)cc2)C[C@@H]2C[C@@H]21 [Compound 199, (1S,3S,5S)-2-acetyl-N-[(S)-phenyl[4-(propan-2-yl)phenyl]methyl]-2-azabicyclo[3.1.0]hexane-3-carboxamide] | 1190 nM |
| CC(=O)N1CCC[C@H](C(=O)N2C[C@H](F)C[C@H]2C(=O)N[C@@H](c2ccccc2)c2ccc(C(C)C)cc2)C1 [Compound 153, (2S,4R)-1-[(3S)-1-acetylpiperidine-3-carbonyl]-4-fluoro-N-[(S)-phenyl[4-(propan-2-yl)phenyl]methyl]pyrrolidine-2-carboxamide] | 412 nM |
| CC(=O)N1C[C@H]2C[C@@]2(C(=O)N2C[C@H](F)C[C@H]2C(=O)N[C@@H](c2ccccc2)c2ccc(C(C)C)cc2)C1 [Compound 148, (2S,4R)-1-[(1S,5S)-3-acetyl-3-azabicyclo[3.1.0]hexane-1-carbonyl]-4-fluoro-N-[(S)-phenyl[4-(propan-2-yl)phenyl]methyl]pyrrolidine-2-carboxamide] | 344 nM |
| CC(=O)N1CCC(C)(C(=O)N2C[C@H](F)C[C@H]2C(=O)N[C@@H](c2ccccc2)c2ccc(C(C)C)cc2)C1 (stereo partly drawn) [Compound 152, (2S,4R)-1-(1-acetyl-3-methylpyrrolidine-3-carbonyl)-4-fluoro-N-[(S)-phenyl[4-(propan-2-yl)phenyl]methyl]pyrrolidine-2-carboxamide] | 132 nM |
| CC(C)c1ccc([C@@H](NC(=O)[C@@H]2C[C@@H](F)CN2C(=O)CCc2cccnc2)c2ccccc2)cc1 [Compound 66, (2S,4R)-4-fluoro-N-[(S)-phenyl[4-(propan-2-yl)phenyl]methyl]-1-[3-(pyridin-3-yl)propanoyl]pyrrolidine-2-carboxamide] | 82 nM |
| CC(C)c1ccc([C@@H](NC(=O)[C@@H]2C[C@@H](F)CN2C(=O)C2CCC3CCC(=O)N3C2)c2ccccc2)cc1 (stereo partly drawn) [Compound 139, (2S,4R)-4-fluoro-1-(3-oxo-octahydroindolizine-6-carbonyl)-N-[(S)-phenyl[4-(propan-2-yl)phenyl]methyl]pyrrolidine-2-carboxamide] | 357 nM |

More lines, now with the values ahead:

| IC50 | SMILES |
| --- | --- |
| 381 nM | Cc1cn(CC(=O)N2C[C@H](F)C[C@H]2C(=O)N[C@@H](c2ccccc2)c2ccc(C(C)C)c(F)n2)c(=O)[nH]c1=O (relative stereo) [Compound 778, (2S,4R)-4-fluoro-N-[(R*)-[6-fluoro-5-(propan-2-yl)pyridin-2-yl](phenyl)methyl]-1-[2-(5-methyl-2,4-dioxo-1,2,3,4-tetrahydropyrimidin-1-yl)acetyl]pyrrolidine-2-carboxamide] |
| 1130 nM | CC(C)c1cnc(C(NC(=O)[C@@H]2C[C@@H](F)CN2C(=O)Cc2cnn[nH]2)c2ccccc2)cc1C(F)F (single isomer, unassigned) [Compound 606, (2S,4R)-N-[(S) or (R)-[4-(difluoromethyl)-5-(propan-2-yl)pyridin-2-yl](phenyl)methyl]-4-fluoro-1-[2-(1H-1,2,3-triazol-5-yl)acetyl]pyrrolidine-2-carboxamide] |
| 1640 nM | CC(C)c1ccc(C(NC(=O)[C@@H]2C[C@@H](F)CN2C(=O)Cc2cnn[nH]2)c2cncc(F)c2)cc1F (single isomer, unassigned) [Compound 617, (2S,4R)-4-fluoro-N-[(R) or (S)-[3-fluoro-4-(propan-2-yl)phenyl](5-fluoropyridin-3-yl)methyl]-1-[2-(1H-1,2,3-triazol-5-yl)acetyl]pyrrolidine-2-carboxamide] |
| 1520 nM | CC(C)c1ccc(C(NC(=O)[C@@H]2C[C@@H](F)CN2C(=O)Cc2cnn[nH]2)c2ccnc(N)c2)cc1F (single isomer, unassigned) [Compound 618, (2S,4R)-N-[(S) or (R)-(2-aminopyridin-4-yl)[3-fluoro-4-(propan-2-yl)phenyl]methyl]-4-fluoro-1-[2-(1H-1,2,3-triazol-5-yl)acetyl]pyrrolidine-2-carboxamide] |
| 27 nM | O=C(N[C@@H](c1ccccc1)c1ccc(C2CC2)c(F)n1)[C@@H]1C[C@@H](F)CN1C(=O)Cn1nncc1N1CCC1 [Compound 762, (2S,4R)-1-{2-[5-(azetidin-1-yl)-1H-1,2,3-triazol-1-yl]acetyl}-N-[(S)-(5-cyclopropyl-6-fluoropyridin-2-yl)(phenyl)methyl]-4-fluoropyrrolidine-2-carboxamide] |
| 12 nM | CC(C)c1ccc([C@@H](NC(=O)[C@@H]2C[C@@H](F)CN2C(=O)Cn2nncc2N2CCC2)c2ccccc2)nc1F [Compound 808, (2S,4R)-1-{2-[5-(azetidin-1-yl)-1H-1,2,3-triazol-1-yl]acetyl}-4-fluoro-N-[(S)-[6-fluoro-5-(propan-2-yl)pyridin-2-yl](phenyl)methyl] pyrrolidine-2-carboxamide] |
| 106 nM | CC(=O)N1C[C@H](F)C[C@H]1C(=O)N[C@@H](c1cccc(-c2nnc[nH]2)c1)c1ccc(C(C)C)c(F)n1 (single isomer, unassigned) [Compound 688, (2S,4R)—N—((S) or (R)-(3-(4H-1,2,4-triazol-3-yl)phenyl)(6-fluoro-5-isopropylpyridin-2-yl)methyl)-1-acetyl-4-fluoropyrrolidine-2-carboxamide] |
| 2220 nM | CC(C)c1ccc([C@@H](NC(=O)[C@@H]2C[C@@H](F)CN2C(=O)c2ccc3c(n2)NC(=O)CC3)c2ccccc2)cc1 [Compound 704, (2S,4R)-4-fluoro-1-(7-oxo-5,6,7,8-tetrahydro-1,8-naphthyridine-2-carbonyl)-N-[(S)-phenyl[4-(propan-2-yl)phenyl]methyl]pyrrol-idine-2-carboxamide] |
| 1580 nM | CC(=O)NCC(=O)N1CCC[C@H]1C(=O)NC(c1ccc(C2CC2)c(F)c1)c1ccn[nH]1 (single isomer, unassigned) [Compound 615, (2S)-N-[(R) or (S)-(4-cyclopropyl-3-fluorophenyl)(1H-pyrazol-5-yl)methyl]-1-(2-acetamidoacetyl) pyrrolidine-2-carboxamide] |
| 2160 nM | COc1ccc(C2CC2C(=O)N2C[C@H](F)C[C@H]2C(=O)N[C@@H](c2ccccc2)c2ccc(C(C)C)cc2)cc1 (stereo partly drawn) [Compound 703, (2S,4R)-4-fluoro-1-[2-(4-methoxyphenyl)cyclopro-panecarbonyl]-N-[(S)-phenyl[4-(propan-2-yl)phenyl]methyl]pyrrol-idine-2-carboxamide] |
| 2190 nM | CC(=O)N1[C@@H](C)CC[C@H]1C(=O)N[C@@H](c1ccccc1)c1ccc(C2CC2)c(F)c1 [Compound 419, (2S,5S)-1-acetyl-N-[(S)-(4-cyclopropyl-3-fluorophenyl)(phenyl)methyl]-5-methylpyrrolidine-2-carboxamide] |
| 2180 nM | CC(=O)NCC(=O)N1CCC[C@H]1C(=O)NC(c1ccc(C2CC2)c(F)c1)c1cccc2[nH]c(=O)oc12 (single isomer, unassigned) [Compound 643, (2S)-N-[(R) or (S)-(4-cyclopropyl-3-fluorophenyl)(2-oxo-2,3-dihydro-1,3-benzoxazol-7-yl)methyl]-1-(2-acetamidoacetyl) pyrrolidine-2-carboxamide] |
